The text below walks through data of patent US12036212B2, “Enhancement of tumor response to chemotherapy by activation of the asmase/ceramide pathway through timed administration of a short-acting anti-angiogenic agent” (Memorial Sloan-Kettering Cancer Center, priority 2014, dated 2024).

One assay relates to BAEC. The assay can be described thus: Apoptosis in vitro (Hoechst nuclear staining) in BAEC. The note with it: bovine endothelial cells; cisplatin up to 50 μM; etoposide 50 μM alone, 8 hours. Format: cell-based, bovine. As for the experimental part: Apoptosis was assessed in vitro by examining morphologic changes in nuclear chromatin using bis-benzimide trihydrochloride (Hoechst #33258; Sigma-Aldrich, Milwaukee WI). BAEC and HCAEC monolayer cultures were first detached using 0.25% trypsin and 0.02% EDTA in HBSS and then combined with the floating population of cells. The cell pellet was washed in PBS, resuspended in 3% paraformaldehyde, and incubated for 10 min at 22° C. Following the removal of fixative, cells were resuspended in PBS containing 8 μg/ml of Hoechst-33258. Following a 15-min incubation at 22° C., cells were placed on a glass slide, and scored for the incidence of apoptotic chromatin changes using fluorescence microscope.
Since the ASMase/ceramide pathway is known to play a critical role in endothelial injury and dysfunction, BAEC and HCAEC were treated with paclitaxel (100 nM), etoposide (50 μM), and cisplatin (0.1-50 μM), and endothelial apoptosis was assessed.
To set the basis for experiments involving evaluation of anti-angiogenic therapy in combination with chemotherapy, and the role of ASMase/ceramide pathway in this process, the effects of various factors on the chemotherapy induced cell death were assessed. BAEC were pre-incubated for 30 min with bFGF (2 ng/mL), VEGF (2 ng/mL) or nystatin (30 μg/mL) prior to treatment with etoposide (50 μM), and apoptosis was evaluated after 8 hours using bis-benzamide trihydrochloride staining (FIG. 3).

A further assay has as its system CRM. Kind of assay: CRM detection by confocal microscopy in BAEC. Format: cell-based, bovine. The conditions noted are these: paclitaxel 100 nM. How it is done: BAEC were grown on CC2-treated chamber slides (Nalge Nunc International Corp., Naperville, USA) and then exposed to etoposide or paclitaxel with or without pre-incubation with Nystatin (30 μg/ml, Sigma) for 30 min. BAEC were then washed in cold PBS, fixed for 15 min in fresh 2% paraformaldehyde, washed 2× with cold PBS, and blocked with 5% FBS in PBS for 20 min at room temperature. Cells were stained with anti-ceramide MID 15B4 IgM (Alexis Corporation) at 1:50 dilution for 1 hour at room temperature, washed 3× in PBS, and thereafter with Texas Red-conjugated secondary antibody (Jackson Immunoresearch Laboratories, Inc.) at 1:500 dilution for 1 hour at room temperature. Nonspecific fluorescence was excluded using isotype control IgM (BD Biosciences). Cells were washed 3×, stained with DAPI and mounted in 0.1% paraphenylenediamine. Fluorescence was detected using Leica TCS SP2 AOBS 1- and 2-photon laser scanning confocal (DMRXA2 upright stand) microscope coupled with MetaMorph 7.5 (Molecular Devices). Number of CRMs in membranes of endothelial cells was analyzed using MetaMorph 7.5 software that allowed outlining of regions containing CRMs based on two criteria: 1) CRM size (≥500 nm); 2) Intensity of ceramide staining. Mice: asmase^+/+ and asmase^−/− mice, maintained in a SCID background, were propagated using heterozygous breeding pairs and genotyped as previously described (Santana et al. Cell, 86, 189-199, 1996; Grassme et al. Nat Med 9, 322-330 (2003). 6-12 week-old C57BL6/SV129 male mice, purchased from The Jackson Laboratory (Bar Harbor).
To test the effect of chemotherapy on ASMase signaling and ceramide production, BAEC were treated with paclitaxel (100 nM) and ASMase activity was determined by radioenzymatic assay (Rotolo et al, infra) using [^14C-methylcholine] sphingomyelin (Amersham) as substrate (FIG. 1A). Induction of ASMase activity was observed within 5 minutes after treatment, and the activation continued for 30 minutes. Ceramide generation was monitored using the diacylglycerol kinase assay (Stancevic et al. PLoS ONE 8, e69025, 2013). […]

In the case of `N.N.[Cl][Pt][Cl]` [cisplatin], the Apoptotic response result with BAEC is listed as “failed to trigger an appropriate apoptotic response”.

On to `CC(=O)O[C@H]1C(=O)[C@@]2(C)[C@H]([C@H](OC(=O)c3ccccc3)[C@]3(O)C[C@H](OC(=O)[C@H](O)[C@@H](NC(=O)c4ccccc4)c4ccccc4)C(C)=C1C3(C)C)[C@]1(OC(C)=O)CO[C@@H]1C[C@@H]2O` [paclitaxel], for which, in the assay on CRM, the “CRM formation peak time” value amounted to 5 min and the “CRM formation remained elevated for” value was determined as 30 min.
